In patent US11377659B2, “Short hairpin RNA (shRNA734) and use of same to positively select and eliminate genetically modified cells” (THE REGENTS OF THE UNIVERSITY OF CALIFORNIA, priority 2016, dated 2022):

Assays:
[1] = humans, estimated; cited from earlier work
[2] = test system: Molt4CCR5, PBMC and CD34+ cells; assay: MTX mediated negative selection of HPRT knock down cells; assay type: cell-based, human; conditions: in vitro, 10 μM MTX; % EGFP monitored
Description: FIG. 8. Line graphs showing MTX mediated inhibition of Dihydrofolate reductase (DHFR) induced cell death in HPRT knock down cells.
Negative selection of HPRT knock down cells by MTX is illustrated in FIG. 7, which presents a schematic illustration of MTX mediated inhibition of Dihydrofolate reductase (DHFR) induced cell death in HPRT knock down cells. […] The de novo synthesis occurs through a multi-step process and requires the contribution of four aminoacids, one PRPP, two folates and three ATP to synthesize an inosine monophosphate (IMP) molecule. HPRT catalyzes the salvage synthesis of inosine monophosphate (IMP) and guanosine monophosphate (GMP) from the purine bases hypoxanthine and guanine respectively, utilizing PRPP as a co-substrate. The HPRT defect results in the accumulation of its substrates, hypoxanthine and guanine, which are converted into uric acid by means of xanthine oxidase. Elevated APRT activity may also contribute to purine overproduction.
Molt4CCR5 (A), PBMC (B) and CD34+ (C) cells were transduced with dual shRNA vector. The transduced cells were cultured with or without 10 μM MTX. Cells were monitored for % EGFP and given fresh media containing MTX every 3 days.

[3] = test system: human T-cell line, CD34+ cells and primary peripheral blood mononuclear cells (PBMC); assay: 6TG-mediated positive selection of lentiviral vector-transduced cells in vitro; assay type: cell-based; conditions: cultured in the presence of 6TG
Description: FIG. 4. Lentiviral vector delivery of HPRT shRNA results in efficient selections of HPRT knockdown by 6TG. Selection of HPRT knockdown Molt4-CCR5, PBMC and CD34+ cell by 6TG. The shRNA vector and control vector transduced cells were cultured with or without 6TG.
The potent and non-toxic HPRT shRNA enables 6TG-mediated positive selection of lentiviral vector-transduced human T-cell line, CD34+ cells and primary peripheral blood mononuclear cells (PBMC) in vitro. A lentivirus vector was utilized to deliver sh734 and to stably knockdown HPRT in human T cell lines, primary peripheral blood mononuclear cells and CD34+ hematopoietic stem/progenitor cells.
Furthermore, the invention provides a combinatorial anti-HIV lentiviral vector expressing the HIV fusion inhibitor C46, and shRNAs for CCR5 and HPRT. […] Methotrexate (MTX) has been used to negatively select the transduced cells.
(§1) The shRNA vector and control vector transduced cells were cultured with or without 6TG. […] Whole cell lysates were analyzed by Western blot after transduction at the indicated time points.

[4] = test system: hypoxanthine guanine phosphoribosyltransferase (HPRT); assay: HPRT knockdown in vector transduced cells (Western blot); assay type: cell-based, human; conditions: lentiviral vector transduced cells
Description: FIG. 6. HPRT knockdown in vector transduced cells. Whole cell lysates were analyzed by Western blot after transduction at the indicated time points.
as §1

Q: For Nc1nc2nc[nH]c2c(=S)[nH]1 [6TG, 6-thioguanine], which “Absorption after oral administration” value [1] is on record?
A: 30%

Q: For CN(Cc1cnc2nc(N)nc(N)c2n1)c1ccc(C(=O)N[C@@H](CCC(=O)O)C(=O)O)cc1 [MTX, methotrexate], which “negative selection of HPRT knock down cells by MTX” value [2] is on record?
A: negatively selected

Q: What does the source list for “sh734: short hairpin RNA directed to human HPRT, coding sequence SEQ ID NO: 1 (DNA AGGATATGCCCTTGACTATTTGTCCGACATAGTCAAGGGCATATCCT; expressed or natural sequence)”?
A: positive selection of vector transduced cells by 6TG [3]: positively selected; HPRT knockdown [4]: efficient HPRT knockdown
